{"source": "patent US20100113421A1", "about": "“NON-NUCLEOSIDE REVERSE TRANSCRIPTASE INHIBITORS” (priority 2006, published 2010)", "key": {"[1]": {"test_system": "HIV strain containing the Y181C mutation", "experiment": "Spread assay, Y181C mutant strain", "type": "cell-based", "experimental": "(§1) Assays for the inhibition of acute HIV-1 infection of T-lymphoid cells (alternatively referred to herein as the “spread assay”) were conducted in accordance with Vacca, J. P. et al., Proc. Natl. Acad. Sci. USA 1994, 91: 4096. The assays (using 10% FBS) tested for inhibition of wild type HIV-1 and of HIV strains containing the Y181C or K103N mutation. […] (Note that the compound of Example 6 was tested only up to a 833 nM concentration and the CIC95 value was determined to be >833 nM. The compound of Example 78 was not tested in the Y1818C assay.) The compounds of Examples 1 to 119 (including Examples 70A and 70B) had CIC95 values of less than 1000 nanomolar in the assay employing the K103N mutant strain. In an analogous assay employing a mutant strain containing both the K103N and Y181C mutations, the compounds of Examples 70A, 70B and 78-115 had CIC95 values of less than 1000 nanomolar."}, "[2]": {"test_system": "mutant strain containing both the K103N and Y181C mutations", "experiment": "Spread assay, mutant strain containing both K103N and Y181C", "type": "cell-based, HIV", "experimental": "as §1"}, "[3]": {"conditions": "Human immunodeficiency virus 1, spread assay, 10% FBS, Y181C mutant strain, read-out: CIC95"}, "[4]": {"conditions": "Human immunodeficiency virus 1, read-out: CIC95"}, "[5]": {"conditions": "Human immunodeficiency virus 1, analogous spread assay, K103N and Y181C double mutant strain, read-out: CIC95"}}, "note": "Read-outs that look alike come from different tables or passages of the source.", "data": [{"smiles": "CC(C)c1c(C(=O)N(C)Cc2ccc(Cl)cc2Cl)[nH]c(C(N)=O)c1S(=O)(=O)c1ccccc1", "note": "[Example 63, N-(2,4-dichlorobenzyl)-3-isopropyl-N-methyl-4-(phenylsulfonyl)-1H-pyrrole-2,5-dicarboxamide]", "values": [{"measurement": "IC95", "setting": "[1]; [3]", "value": "< 8", "unit": "µM"}]}, {"smiles": "CC(C)c1c(C(=O)N(C)Cc2ccc3ncccc3c2)[nH]c(C(N)=O)c1S(=O)(=O)c1ccccc1", "note": "[Example 64, 3-isopropyl-N-methyl-4-(phenylsulfonyl)-N-(6-quinolinylmethyl)-1H-pyrrole-2,5-dicarboxamide]", "values": [{"measurement": "IC95", "setting": "[1]; [3]", "value": "< 8", "unit": "µM"}]}, {"smiles": "CCCc1c(C(=O)N(C)Cc2ccc3ncccc3c2)[nH]c(C(N)=O)c1S(=O)(=O)c1ccccc1", "note": "[Example 65, N-methyl-4-(phenylsulfonyl)-3-propyl-N-(6-quinolinylmethyl)-1H-pyrrole-2,5-dicarboxamide]", "values": [{"measurement": "IC95", "setting": "[1]; [3]", "value": "< 8", "unit": "µM"}]}, {"smiles": "CCCCc1c(C(=O)N(C)Cc2ccc3ncccc3c2)[nH]c(C(N)=O)c1S(=O)(=O)c1ccccc1", "note": "[Example 66, 3-butyl-N-methyl-4-(phenylsulfonyl)-N-(6-quinolinylmethyl)-1H-pyrrole-2,5-dicarboxamide]", "values": [{"measurement": "IC95", "setting": "[1]; [3]", "value": "< 8", "unit": "µM"}]}, {"smiles": "CCCCc1c(C(=O)N(C)Cc2ccc3ncccc3c2)[nH]c(C(N)=O)c1S(=O)(=O)c1cccc(C)c1", "note": "[Example 67, 3-butyl-N-methyl-4-(3-methylphenylsulfonyl)-N-(6-quinolinylmethyl)-1H-pyrrole-2,5-dicarboxamide]", "values": [{"measurement": "IC95", "setting": "[1]; [3]", "value": "< 8", "unit": "µM"}]}, {"smiles": "CCCCc1c(C(=O)N(C)Cc2ccc3ncccc3c2)[nH]c(C(N)=O)c1S(=O)(=O)c1cccc(Cl)c1", "note": "[Example 68, 3-butyl-4-[(3-chlorophenyl)sulfonyl]-N-methyl-N-(6-quinolinylmethyl)-1H-pyrrole-2,5-dicarboxamide]", "values": [{"measurement": "IC95", "setting": "[1]; [3]", "value": "< 8", "unit": "µM"}]}, {"smiles": "CCCCc1c(C(=O)N(C)Cc2ccc3ncccc3c2)[nH]c(C(N)=O)c1S(=O)(=O)c1cc(C)cc(C)c1", "note": "[Example 69, 3-butyl-4-[(3,5-dimethylphenyl)sulfonyl]-N-methyl-N-(6-quinolinylmethyl)-1H-pyrrole-2,5-dicarboxamide]", "values": [{"measurement": "IC95", "setting": "[1]; [3]", "value": "< 8", "unit": "µM"}]}, {"smiles": "CCCCc1c(C(=O)N(C)Cc2ccc3ncccc3c2)[nH]c(C(N)=O)c1S(=O)(=O)c1cc(Cl)cc(Cl)c1", "note": "[Example 70, 3-butyl-4-[(3,5-dichlorophenyl)sulfonyl]-N-methyl-N-(6-quinolinylmethyl)-1H-pyrrole-2,5-dicarboxamide]", "values": [{"measurement": "IC95", "setting": "[1]; [3]", "value": "< 8", "unit": "µM"}]}, {"smiles": "CC(C)c1c(C(=O)N(C)Cc2ccc3ncccc3c2Cl)[nH]c(C(N)=O)c1S(=O)(=O)c1ccccc1", "note": "[Example 70A, 3-isopropyl-N-methyl-4-(phenylsulfonyl)-N-[(5-chloroquinolin-6-yl)methyl]-1H-pyrrole-2,5-dicarboxamide]", "values": [{"measurement": "IC95", "setting": "[1]; [4]", "value": "< 8", "unit": "µM"}, {"measurement": "IC95", "setting": "[2]; [4]", "value": "< 1", "unit": "µM"}]}, {"smiles": "CC(C)c1c(C(=O)N(C)Cc2cc3cccnc3cc2Cl)[nH]c(C(N)=O)c1S(=O)(=O)c1ccccc1", "note": "[Example 70B, 3-isopropyl-N-methyl-4-(phenylsulfonyl)-N-[(7-chloroquinolin-6-yl)methyl]-1H-pyrrole-2,5-dicarboxamide]", "values": [{"measurement": "IC95", "setting": "[1]; [4]", "value": "< 8", "unit": "µM"}, {"measurement": "IC95", "setting": "[2]; [4]", "value": "< 1", "unit": "µM"}]}, {"smiles": "Cc1c(C(=O)N(C)Cc2ccc(Cl)cc2Cl)[nH]c(C(=O)NCc2n[nH]c3ccccc23)c1S(=O)(=O)c1ccccc1", "note": "[Example 71, N-(2,4-Dichlorobenzyl)-N′-(1H-indazol-3-ylmethyl)-N,3-dimethyl-4-(phenylsulfonyl)-1H-pyrrole-2,5-dicarboxamide]", "values": [{"measurement": "IC95", "setting": "[1]; [3]", "value": "< 8", "unit": "µM"}]}, {"smiles": "CNC(=O)c1[nH]c(C(=O)N(C)Cc2ccc(Cl)cc2Cl)c(C)c1S(=O)(=O)c1ccccc1", "note": "[Example 72, N-(2,4-dichlorobenzyl)-N,N′,3-trimethyl-4-(phenylsulfonyl)-1H-pyrrole-2,5-dicarboxamide]", "values": [{"measurement": "IC95", "setting": "[1]; [3]", "value": "< 8", "unit": "µM"}]}, {"smiles": "Cc1cnccc1CNC(=O)c1[nH]c(C(=O)N(C)Cc2ccc(Cl)cc2Cl)c(C)c1S(=O)(=O)c1ccccc1", "note": "[Example 73, N-(2,4-dichlorobenzyl)-N,3-dimethyl-N′-[(3-methyl-4-pyridinyl)methyl]-4-(phenylsulfonyl)-1H-pyrrole-2,5-dicarboxamide]", "values": [{"measurement": "IC95", "setting": "[1]; [3]", "value": "< 8", "unit": "µM"}]}, {"smiles": "Cc1c(C(=O)N(C)Cc2ccc(Cl)cc2Cl)[nH]c(C(=O)NCc2ccccn2)c1S(=O)(=O)c1ccccc1", "note": "[Example 74, N-(2,4-dichlorobenzyl)-N,3-dimethyl-4-(phenylsulfonyl)-N′-(2-pyridinylmethyl)-1H-pyrrole-2,5-dicarboxamide]", "values": [{"measurement": "IC95", "setting": "[1]; [3]", "value": "< 8", "unit": "µM"}]}, {"smiles": "Cc1c(C(=O)N(C)Cc2ccc(Cl)cc2Cl)[nH]c(C(=O)NCc2cccnc2)c1S(=O)(=O)c1ccccc1", "note": "[Example 75, N-(2,4-dichlorobenzyl)-N,3-dimethyl-4-(phenylsulfonyl)-N′-(3-pyridinylmethyl)-1H-pyrrole-2,5-dicarboxamide]", "values": [{"measurement": "IC95", "setting": "[1]; [3]", "value": "< 8", "unit": "µM"}]}, {"smiles": "Cc1c(C(=O)N(C)Cc2ccc(Cl)cc2Cl)[nH]c(C(=O)NCc2nccs2)c1S(=O)(=O)c1ccccc1", "note": "[Example 76, N-(2,4-dichlorobenzyl)-N,3-dimethyl-4-(phenylsulfonyl)-N′-(1,3-thiazol-2-ylmethyl)-1H-pyrrole-2,5-dicarboxamide]", "values": [{"measurement": "IC95", "setting": "[1]; [3]", "value": "< 8", "unit": "µM"}]}, {"smiles": "Cc1c(C(=O)N(C)Cc2ccc(Cl)cc2Cl)[nH]c(C(=O)NCc2c(F)cccc2Cl)c1S(=O)(=O)c1ccccc1", "note": "[Example 77, N′-(2-chloro-6-fluorobenzyl)-N-(2,4-dichlorobenzyl)-N,3-dimethyl-4-(phenylsulfonyl)-1H-pyrrole-2,5-dicarboxamide]", "values": [{"measurement": "IC95", "setting": "[1]; [3]", "value": "< 8", "unit": "µM"}]}, {"smiles": "Cc1c(C(=O)N2CCCc3ccccc3C2)[nH]c(C(N)=O)c1S(=O)(=O)c1ccccc1", "note": "[Example 78, 4-Methyl-3-(phenylsulfonyl)-5-(1,3,4,5-tetrahydro-2H-2-benzazepine-2-ylcarbonyl)-1H-pyrrole-2-carboxamide]", "values": [{"measurement": "IC95", "setting": "[2]; [5]", "value": "< 1", "unit": "µM"}]}, {"smiles": "Cc1cc(C)cc(S(=O)(=O)c2c(C(N)=O)[nH]c(C(=O)N3CCCc4ccccc4C3)c2C)c1", "note": "[Example 79, 4-Methyl-3-(3,5-dimethylphenylsulfonyl)-5-(1,3,4,5-tetrahydro-2H-2-benzazepine-2-ylcarbonyl)-1H-pyrrole-2-carboxamide]", "values": [{"measurement": "IC95", "setting": "[1]; [3]", "value": "< 8", "unit": "µM"}, {"measurement": "IC95", "setting": "[2]; [5]", "value": "< 1", "unit": "µM"}]}, {"smiles": "Cc1cc(C)cc(S(=O)(=O)c2c(C(N)=O)[nH]c(C(=O)N3CCCc4sccc4C3)c2C)c1", "note": "[Example 80, 3-[(3,5-Dimethylphenyl)sulfonyl]-4-methyl-5-(4,6,7,8-tetrahydro-5H-thieno[3,2-c]azepin-5-ylcarbonyl)-1H-pyrrole-2-carboxamide]", "values": [{"measurement": "IC95", "setting": "[1]; [3]", "value": "< 8", "unit": "µM"}, {"measurement": "IC95", "setting": "[2]; [5]", "value": "< 1", "unit": "µM"}]}, {"smiles": "COc1ccc2c(c1)CN(C(=O)c1[nH]c(C(N)=O)c(S(=O)(=O)c3cc(Cl)cc(Cl)c3)c1C)CCC2", "note": "[Example 81, 3-[(3,5-dichlorophenyl)sulfonyl]-4-methyl-5-(8-methoxy-1,3,4,5-tetrahydro-2H-2-benzazepin-2-ylcarbonyl)-1H-pyrrole-2-carboxamide]", "values": [{"measurement": "IC95", "setting": "[1]; [3]", "value": "< 8", "unit": "µM"}, {"measurement": "IC95", "setting": "[2]; [5]", "value": "< 1", "unit": "µM"}]}, {"smiles": "Cc1c(C(=O)N2CCCc3ccc(O)cc3C2)[nH]c(C(N)=O)c1S(=O)(=O)c1cc(Cl)cc(Cl)c1", "note": "[Example 82, 3-[(3,5-dichlorophenyl)sulfonyl]-4-methyl-5-(8-hydroxy-1,3,4,5-tetrahydro-2H-2-benzazepin-2-ylcarbonyl)-1H-pyrrole-2-carboxamide]", "values": [{"measurement": "IC95", "setting": "[1]; [3]", "value": "< 8", "unit": "µM"}, {"measurement": "IC95", "setting": "[2]; [5]", "value": "< 1", "unit": "µM"}]}, {"smiles": "Cc1c(C(=O)N2CCCc3ccccc3C2)[nH]c(C(N)=O)c1S(=O)(=O)c1cc(Cl)cc(Cl)c1", "note": "[Example 83, 3-[(3,5-dichlorophenyl)sulfonyl]-4-methyl-5-(1,3,4,5-tetrahydro-2H-2-benzazepin-2-ylcarbonyl)-1H-pyrrole-2-carboxamide]", "values": [{"measurement": "IC95", "setting": "[1]; [3]", "value": "< 8", "unit": "µM"}, {"measurement": "IC95", "setting": "[2]; [5]", "value": "< 1", "unit": "µM"}]}, {"smiles": "Cc1c(C(=O)N2CCCc3sccc3C2)[nH]c(C(N)=O)c1S(=O)(=O)c1cc(Cl)cc(Cl)c1", "note": "[Example 84, 3-[(3,5-dichlorophenyl)sulfonyl]-4-methyl-5-(4,6,7,8-tetrahydro-5H-thieno[3,2-c]azepin-5-ylcarbonyl)-1H-pyrrole-2-carboxamide]", "values": [{"measurement": "IC95", "setting": "[1]; [3]", "value": "< 8", "unit": "µM"}, {"measurement": "IC95", "setting": "[2]; [5]", "value": "< 1", "unit": "µM"}]}, {"smiles": "COc1ccc2c(c1)CCCN(C(=O)c1[nH]c(C(N)=O)c(S(=O)(=O)c3cc(Cl)cc(Cl)c3)c1C)C2", "note": "[Example 85, 3-[(3,5-dichlorophenyl)sulfonyl]-4-methyl-5-(7-methoxy-1,3,4,5-tetrahydro-2H-2-benzazepin-2-ylcarbonyl)-1H-pyrrole-2-carboxamide]", "values": [{"measurement": "IC95", "setting": "[1]; [3]", "value": "< 8", "unit": "µM"}, {"measurement": "IC95", "setting": "[2]; [5]", "value": "< 1", "unit": "µM"}]}, {"smiles": "Cc1c(C(=O)N(C)Cc2ccc(Cl)cc2Cl)[nH]c(C(N)=O)c1S(=O)(=O)N1CCCC1", "note": "[Example 116, N-(2,4-dichlorobenzyl)-N,3-dimethyl-4-(1-pyrrolidinylsulfonyl)-1H-pyrrole-2,5-dicarboxamide]", "values": [{"measurement": "IC95", "setting": "[1]; [3]", "value": "< 8", "unit": "µM"}]}, {"smiles": "Cc1c(C(=O)N(C)Cc2ccccc2Cl)[nH]c(C(=O)NCc2ccccn2)c1S(=O)(=O)N1CCCC1", "note": "[Example 117, N-(2-chlorobenzyl)-N,3-dimethyl-N′-(2-pyridinylmethyl)-4-(1-pyrrolidinylsulfonyl)-1H-pyrrole-2,5-dicarboxamide]", "values": [{"measurement": "IC95", "setting": "[1]; [3]", "value": "< 8", "unit": "µM"}]}, {"smiles": "Cc1c(C(=O)N(C)Cc2ccc(Cl)cc2Cl)[nH]c(C(N)=O)c1S(=O)(=O)N1CCCCC1", "note": "[Example 118, N-(2,4-dichlorobenzyl)-N,3-dimethyl-4-(1-piperidinylsulfonyl)-1H-pyrrole-2,5-dicarboxamide]", "values": [{"measurement": "IC95", "setting": "[1]; [3]", "value": "< 8", "unit": "µM"}]}, {"smiles": "Cc1c(C(=O)N(C)Cc2ccccc2Cl)[nH]c(C(N)=O)c1S(=O)(=O)N1CCCCC1", "note": "[Example 119, N-(2-chlorobenzyl)-N,3-dimethyl-4-(1-piperidinylsulfonyl)-1H-pyrrole-2,5-dicarboxamide]", "values": [{"measurement": "IC95", "setting": "[1]; [3]", "value": "< 8", "unit": "µM"}]}]}
